Results as given in ChEMBL document CHEMBL6096638, “Design, synthesis and biological evaluation of novel TMPRSS2-PROTACs with florosubstituted 4-guanidino-N-phenylbenzamide derivative ligands” (Bioorg Med Chem, 2024).
Activity calls are given as the source filed them. No cut-off for these calls is given here.

Key:
MDA-MB-231 = assay: Antiproliferative activity against human MDA-MB-231 cells assessed as inhibition of cell growth incubated for 48 hrs by CCK-8 assay; type: functional, cell-based; conditions: MDA-MB-231, 48 h
CWR22R = assay: Antiproliferative activity against human 22Rv1 cells assessed as inhibition of cell growth incubated for 48 hrs by CCK-8 assay; type: functional, cell-based; conditions: 22Rv1, 48 h
NCI-H1299 = assay: Antiproliferative activity against human NCI-H1299 cells assessed as inhibition of cell growth incubated for 48 hrs by CCK-8 assay; type: functional, cell-based; conditions: NCI-H1299, 48 h
786-0 = assay: Antiproliferative activity against human 786-0 cells assessed as inhibition of cell growth incubated for 48 hrs by CCK-8 assay; type: functional, cell-based; conditions: 786-0, 48 h
A549 = assay: Antiproliferative activity against human A549 cells assessed as inhibition of cell growth incubated for 48 hrs by CCK-8 assay; type: functional, cell-based; conditions: A549, 48 h
DU-145 [1] = assay: Antiproliferative activity against human DU-145 cells assessed as inhibition of cell growth incubated for 48 hrs by CCK-8 assay; type: functional, cell-based; conditions: DU-145, 48 h
MRC5 = assay: Antiproliferative activity against human MRC5 cells assessed as inhibition of cell growth incubated for 48 hrs by CCK-8 assay; type: functional, cell-based; conditions: MRC5, 48 h
HT-29 [2] = assay: Antiproliferative activity against human HT-29 cells assessed as inhibition of cell growth incubated for 48 hrs by CCK-8 assay; type: functional, cell-based; conditions: HT-29, 48 h
A-375 = assay: Antiproliferative activity against human A-375 cells assessed as inhibition of cell growth incubated for 48 hrs by CCK-8 assay; type: functional, cell-based; conditions: A-375, 48 h
AGS = assay: Antiproliferative activity against human AGS cells assessed as inhibition of cell growth incubated for 48 hrs by CCK-8 assay; type: functional, cell-based
HepG2 = assay: Antiproliferative activity against human HepG2 cells assessed as inhibition of cell growth incubated for 48 hrs by CCK-8 assay; type: functional, cell-based; conditions: HepG2, 48 h
Calu-3 [3] = assay: Antiproliferative activity against human Calu-3 cells assessed as inhibition of cell growth incubated for 48 hrs by CCK-8 assay; type: functional, cell-based; conditions: Calu-3, 48 h
K562 = assay: Antiproliferative activity against human K562 cells assessed as inhibition of cell growth incubated for 48 hrs by CCK-8 assay; type: functional, cell-based; conditions: K562, 48 h
VCaP = assay: Antiproliferative activity against human VCaP cells assessed as inhibition of cell growth incubated for 48 hrs by CCK-8 assay; type: functional, cell-based
SH-SY5Y = assay: Antiproliferative activity against human SH-SY5Y cells assessed as inhibition of cell growth incubated for 48 hrs by CCK-8 assay; type: functional, cell-based
PC-3 = assay: Antiproliferative activity against human PC-3 cells assessed as inhibition of cell growth incubated for 48 hrs by CCK-8 assay; type: functional, cell-based; conditions: PC-3, 48 h
SK-N-AS = assay: Antiproliferative activity against human SK-N-AS cells assessed as inhibition of cell growth incubated for 48 hrs by CCK-8 assay; type: functional, cell-based
MCF7 = assay: Antiproliferative activity against human MCF7 cells assessed as inhibition of cell growth incubated for 48 hrs by CCK-8 assay; type: functional, cell-based; conditions: MCF7, 48 h
DU-145 [4] = assay: Antiproliferative activity against human DU-145 cells assessed as inhibition of cell growth at 20 uM incubated for 48 hrs by CCK-8 assay relative to control; type: functional
Calu-3 [5] = assay: Antiproliferative activity against human Calu-3 cells assessed as inhibition of cell growth at 20 uM incubated for 48 hrs by CCK-8 assay relative to control; type: functional
HT-29 [6] = assay: Antiproliferative activity against human HT-29 cells assessed as inhibition of cell growth at 20 uM incubated for 48 hrs by CCK-8 assay relative to control; type: functional
HT-29 [7] = assay: Induction of apoptosis in human HT-29 cells assessed as viable cells at 0.2 uM incubated for 48 hrs by Annexin V-FITC/PI staining based flow cytometric analysis (reference value: 90.4 %); type: functional; conditions: read-out: Activity
HT-29 [8] = assay: Inhibition of cell migration in human HT-29 cells at 0.2 to 0.8 uM incubated for 48 hrs by wound healing assay; type: functional, cell-based; conditions: dose 0.2-0.8 µM
HT-29 [9] = assay: Induction of apoptosis in human HT-29 cells assessed as early apoptotic cells at 0.2 uM incubated for 48 hrs by Annexin V-FITC/PI staining based flow cytometric analysis (reference value: 1.22 %); type: functional
HT-29 [10] = assay: Induction of apoptosis in human HT-29 cells assessed as late apoptotic cells at 0.4 uM incubated for 48 hrs by Annexin V-FITC/PI staining based flow cytometric analysis (reference value: 5.87 %); type: functional
HT-29 [11] = assay: Induction of cell cycle arrest in human HT-29 cells assessed as accumulation of cells at G2 phase at 0.8 uM incubated for 36 hrs by PI-staining based flow cytometry; type: functional
HT-29 [12] = assay: Induction of apoptosis in human HT-29 cells assessed as early apoptotic cells at 0.8 uM incubated for 48 hrs by Annexin V-FITC/PI staining based flow cytometric analysis (reference value: 1.22 %); type: functional
HT-29 [13] = assay: Induction of apoptosis in human HT-29 cells assessed as late apoptotic cells at 0.8 uM incubated for 48 hrs by Annexin V-FITC/PI staining based flow cytometric analysis (reference value: 5.87 %); type: functional
HT-29 [14] = assay: Inhibition of colony formation in human HT-29 cells incubated for 24 hrs by crystal violet staining based analysis; type: functional, cell-based; conditions: dose 0.1-0.4 µM
HT-29 [15] = assay: Induction of apoptosis in human HT-29 cells assessed as early apoptotic cells at 0.4 uM incubated for 48 hrs by Annexin V-FITC/PI staining based flow cytometric analysis (reference value: 1.22 %); type: functional
[16] = molecular target: von Hippel-Lindau disease tumor suppressor/Transmembrane protease serine 2 (Homo sapiens) (UniProt O15393+P40337); assay: PROTAC activity at VHL/TMPRSS2 in human HT-29 cells assessed as induction of TMPRSS2 degradation at 2.5 uM incubated for 24 hrs by Western blotting analysis; type: cell-based
HT-29 [17] = assay: Induction of apoptosis in human HT-29 cells assessed as viable cells at 0.8 uM incubated for 48 hrs by Annexin V-FITC/PI staining based flow cytometric analysis (reference value: 90.4 %); type: functional; conditions: read-out: Activity
HT-29 [18] = assay: Induction of apoptosis in human HT-29 cells assessed as viable cells at 0.4 uM incubated for 48 hrs by Annexin V-FITC/PI staining based flow cytometric analysis (reference value: 90.4 %); type: functional; conditions: read-out: Activity
HT-29 [19] = assay: Induction of apoptosis in human HT-29 cells assessed as necrotic cells at 0.4 uM incubated for 48 hrs by Annexin V-FITC/PI staining based flow cytometric analysis (reference value: 2.48 %); type: functional
HT-29 [20] = assay: Induction of apoptosis in human HT-29 cells assessed as necrotic cells at 0.2 uM incubated for 48 hrs by Annexin V-FITC/PI staining based flow cytometric analysis (reference value: 2.48 %); type: functional
HT-29 [21] = assay: Induction of apoptosis in human HT-29 cells assessed as necrotic cells at 0.8 uM incubated for 48 hrs by Annexin V-FITC/PI staining based flow cytometric analysis (reference value: 2.48 %); type: functional
HT-29 [22] = assay: Induction of apoptosis in human HT-29 cells assessed as late apoptotic cells at 0.2 uM incubated for 48 hrs by Annexin V-FITC/PI staining based flow cytometric analysis (reference value: 5.87 %); type: functional

Chain of von Hippel-Lindau disease tumor suppressor/Transmembrane protease serine 2 (Homo sapiens) (O15393 whole entry, looked up): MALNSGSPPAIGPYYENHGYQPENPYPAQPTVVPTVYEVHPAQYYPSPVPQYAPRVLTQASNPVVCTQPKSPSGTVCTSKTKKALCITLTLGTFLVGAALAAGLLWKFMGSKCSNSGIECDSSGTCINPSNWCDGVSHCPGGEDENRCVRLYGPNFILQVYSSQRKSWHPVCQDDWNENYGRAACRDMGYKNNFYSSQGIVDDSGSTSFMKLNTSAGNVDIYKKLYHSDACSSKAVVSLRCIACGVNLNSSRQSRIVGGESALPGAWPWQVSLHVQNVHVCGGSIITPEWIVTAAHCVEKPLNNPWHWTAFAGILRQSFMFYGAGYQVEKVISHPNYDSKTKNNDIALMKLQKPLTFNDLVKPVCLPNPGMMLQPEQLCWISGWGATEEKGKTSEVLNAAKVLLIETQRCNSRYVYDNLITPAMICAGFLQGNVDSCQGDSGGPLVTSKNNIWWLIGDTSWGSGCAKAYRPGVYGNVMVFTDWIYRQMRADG
Chain of von Hippel-Lindau disease tumor suppressor/Transmembrane protease serine 2 (Homo sapiens) (P40337 whole entry, looked up): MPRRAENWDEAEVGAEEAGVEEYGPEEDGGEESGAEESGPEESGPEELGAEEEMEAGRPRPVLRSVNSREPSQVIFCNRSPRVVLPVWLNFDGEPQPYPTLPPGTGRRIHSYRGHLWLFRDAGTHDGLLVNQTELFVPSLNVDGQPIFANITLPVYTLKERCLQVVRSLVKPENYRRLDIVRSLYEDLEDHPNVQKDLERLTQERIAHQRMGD

Row | IC50 (MDA-MB-231) | IC50 (NCI-H1299) | IC50 (786-0) | IC50 (A549) | IC50 (DU-145 [1]) | IC50 (HT-29 [2]) | IC50 (A-375) | IC50 (AGS) | IC50 (HepG2) | IC50 (Calu-3 [3]) | IC50 (K562) | IC50 (VCaP) | IC50 (SH-SY5Y) | IC50 (PC-3) | IC50 (SK-N-AS) | Compound | IC50 (CWR22R) | IC50 (MRC5) | inhibition at 20 µM (DU-145 [4]) | inhibition (Calu-3 [5]) | inhibition at 20 µM (HT-29 [6]) | also measured
1 | > 40 µM | 19.2 µM | > 40 µM | > 40 µM | > 40 µM | > 40 µM | > 40 µM | > 40 µM | > 40 µM | 37.9 µM | > 40 µM | > 40 µM | 37.1 µM | 39.9 µM | > 40 µM | N=C(N)Nc1ccc(C(=O)Oc2ccc3cc(C(=N)N)ccc3c2)cc1 [NAFAMOSTAT] | > 40 µM | > 40 µM |  |  |  | IC50 (MCF7): > 40 µM
2 |  |  |  |  |  |  |  |  |  |  |  |  |  |  |  | COc1cc(C(=O)Nc2cccc(COCCOCCOCCOC(=O)N[C@H](C(=O)N3C[C@H](O)C[C@H]3C(=O)NCc3ccc(-c4scnc4C)cc3)C(C)(C)C)c2)ccc1NC(=N)N |  |  | 8.88% | inactive | 30.1% | 
3 |  |  |  |  |  |  |  |  |  |  |  |  |  |  |  | COc1cc(C(=O)Nc2ccc(CC(=O)NCCCCCC(=O)N[C@H](C(=O)N3C[C@H](O)C[C@H]3C(=O)NCc3ccc(-c4scnc4C)cc3)C(C)(C)C)cc2)ccc1NC(=N)N |  |  | 7.56% | inactive | 20.5% | 
4 | 10.7 µM | > 40 µM | 34.8 µM | 12.3 µM | 5.26 µM | 0.39 µM | 9.63 µM | 14.9 µM | 8.73 µM | 1.62 µM | 9.01 µM | 7.57 µM | 18 µM | 24.5 µM | 6.91 µM | Cc1ncsc1-c1ccc([C@H](C)NC(=O)[C@@H]2C[C@@H](O)CN2C(=O)[C@@H](NC(=O)CN2CCC(CN3CCN(c4ccc(NC(=O)c5cc(F)c(NC(=N)N)cc5F)cc4)CC3)CC2)C(C)(C)C)cc1.Cl | 20 µM | > 40 µM | 74.6% |  | 94.6% | viability at 0.2 µM (HT-29 [7]): 78.8%; Activity (HT-29 [8]): Active; Activity (HT-29 [9]): 1.58%; Activity (HT-29 [10]): 11.6%; inhibition at 20 µM (Calu-3 [5]): 96.1%; Activity (HT-29 [11]): Active; Activity (HT-29 [12]): 15.3%; Activity (HT-29 [13]): 23.2%; inhibition (HT-29 [14]): Dose-dependent-effect; Activity (HT-29 [15]): 3.74%; Activity [16]: Active; viability at 0.8 µM (HT-29 [17]): 58.5%; viability at 0.4 µM (HT-29 [18]): 80.4%; Activity (HT-29 [19]): 4.21%; Activity (HT-29 [20]): 6.59%; Activity (HT-29 [21]): 3.01%; Activity (HT-29 [22]): 13%; IC50 (MCF7): 13.3 µM
5 |  |  |  |  |  |  |  |  |  |  |  |  |  |  |  | COc1cc(C(=O)Nc2ccc(CC(=O)NCCCCCCNc3cccc4c3C(=O)N(C3CCC(=O)NC3=O)C4=O)cc2)ccc1NC(=N)N (configuration not stated) |  |  | 10.5% | inactive | 21.1% | 
6 |  |  |  |  |  |  |  |  |  |  |  |  |  |  |  | N=C(N)Nc1ccc(C(=O)Nc2ccc(CC(=O)N3CCC(CN4CCN(CCCNc5ccc6c(c5)C(=O)N(C5CCC(=O)NC5=O)C6=O)CC4)CC3)cc2)cc1 (configuration not stated) |  |  | 16.8% |  | 37.4% | inhibition at 20 µM (Calu-3 [5]): 5.77%
